This note sets out measurements from PubChem BioAssay (NCI).

Where “and” joins values, the source holds several entries; their conditions need not be identical. Equal values may be shown once.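 A five-concentration, 48-hour dose response in 96-well plates underlies each endpoint, interpolated linearly between surrounding concentrations. GI50 marks 50% less growth. TGI denotes the concentration required for complete inhibition of growth.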 Bounds are passed on as bounds.

This experiment relates to MDA-MB-468 breast. The experiment in a line: NCI anticancer screen, dose series, 48 h.

On to `OCc1ccc(-c2ccc(-c3ccc(CO)o3)[se]2)o1`, for which the GI50 is 219 nM and the TGI came out at 704 nM. The like results for `Cc1ccc(-c2csc(/N=C3\C(=O)Nc4ccccc43)n2)cc1` were, in that order, 1460 nM and 3510 nM. The like results for `Nc1ccc(C2=NN(c3ccccc3)C(c3ccc(Cl)cc3)C2)cc1` (stereo unspecified) were, in that order, 1660 nM and 4090 nM. The matching figures for `COc1cc(/C=C2\C(=O)Nc3cc(C)c(O)cc32)cc(OC)c1OC`: 1500 nM and 5880 nM. As for `CCc1cccc(C)c1NC(=O)c1sc2nc3c(cc2c1N)CCCCC3`, the GI50 was 4180 nM and the TGI was over 100000 nM. The matching figures for `Fc1ccc2[nH]cc(-c3nonc3-c3c[nH]c4ccc(Br)cc34)c2c1`: 1940 nM and 4720 nM. The like results for `Cc1ccc(C)c2c1C(O)(C#Cc1ccccc1)c1ccccc1C2(O)C#Cc1ccccc1` (stereo unspecified) were, in that order, 3570 nM and over 100000 nM. The matching figures for `CO[C@H]1/C=C/O[C@@]2(C)Oc3c(C)c(O)c4c(c3C2=O)C(=O)C(/C=N/N(c2ccccc2)c2ccccc2)=C(NC(=O)/C(C)=C\C=C\[C@H](C)[C@H](O)[C@@H](C)[C@@H](O)[C@@H](C)[C@H](OC(C)=O)[C@@H]1C)C4=O`: 2090 nM and 4690 nM. In the case of `CCOC(=O)c1sc(-c2ccc(OS(=O)(=O)c3ccc(Br)s3)c(C=O)c2)nc1C`, the GI50 is 2960 nM and the TGI worked out at 9200 nM. The matching figures for `COC(=O)CCC(=O)NC1=C(Nc2ccc(OC)cc2)C(=O)c2ccccc2C1=O`: 3090 nM and 12200 nM. The matching figures for `C=C1C(=O)O[C@H]2[C@H]1CC/C(COC(=O)CSCCSCC(=O)OC/C1=C/CC[C@@]3(C)O[C@H]3[C@H]3OC(=O)C(=C)[C@@H]3CC1)=C\CC[C@@]1(C)O[C@@H]21`: 1070 nM and 2850 nM. The like results for `COc1cccc(-c2cc(=O)c3cc(OC)ccc3[nH]2)c1` were, in that order, 982 nM and over 100000 nM. As for `CNC(=O)c1ccc(N2CCN(Cc3ccc4nc(C)c(=O)[nH]c4c3F)CC2)c(F)n1`, the GI50 was 27800 nM and the TGI is over 100000 nM. The matching figures for `Cc1nc(SCC(=O)Nc2nc(-c3ccc(Cl)cc3)cs2)n(Nc2ccccc2)c1C`: 1450 nM and 6270 nM. The matching figures for `C#CCOc1cccc(-c2ncnc3cc(NC(=O)CCl)ccc23)c1`: 1450 nM and 3540 nM. With `CCOC(=O)N1CCN(c2nc(Nc3cc(C)[nH]n3)c3ccccc3n2)CC1`, the GI50 was 1800 nM and the TGI came out at 8420 nM. The matching figures for `CC[N+](CC)=c1sc2c(s1)C(c1ccc(Cl)cc1)Oc1ccc(Cl)cc1-2` (stereo unspecified): 1400 nM and 4120 nM. Turning to `COc1ccc(-c2cn[nH]c2-c2cc(OC)c3c(c2)OCO3)cc1`, the GI50 is 152 nM and the TGI turned out to be 733 nM. With `COC(=O)CCc1c[nH]c2ccc(N(CCCl)CCCl)cc12`, the GI50 was 311 nM and the TGI was determined as 1810 nM. The matching figures for `O=C(Nc1cccc(-n2ccc3c(NC(=O)c4ccccc4)nccc32)c1)Nc1cc(C(F)(F)F)cc(C(F)(F)F)c1`: 1550 nM and 13600 nM. The matching figures for `CN(C)CCCOc1ccc(-c2ccc3ncc4c(c3c2)n(C2CCOCC2)c(=O)n4C)cn1`: 2080 nM and 15700 nM. The like results for `COc1cc(-c2cc3ncccc3c3nc(N)c4cccnc4c23)cc(OC)c1OC` were, in that order, 555 nM and 66800 nM.

For `Cc1ccc2c(n1)C(=O)C(Cl)=C(Nc1ccc(C)c(C)c1)C2=O`, the GI50 is 317 nM and the TGI turned out to be 1340 nM. On to `CN[C@H]1C=C[C@@H]2/C=C(C)/C=C/[C@@H](C)[C@H]([C@H](C)[C@H](O)[C@@H](C)NC(C)=O)OC(=O)/C=C/C=C(C)\C=C\[C@]2(C)C1`, for which the GI50 is < 1 nM and 4.9 nM. `Cc1cnc(NC(=O)Nc2cc(Br)c(C)cc2OC[C@@H]2CNCCO2)cn1`: the GI50 is 3860 nM and 834 nM; the TGI was > 10000 nM and 5490 nM.

Consider `CN(C)S(=O)(=O)c1ccc(-c2nc(C(Cl)Cl)nc3cc(-c4ccc(F)cc4)nn23)cc1`, for which the GI50 is 1630 nM and the TGI was 4640 nM. The matching figures for `Cn1cc(C2=C(c3cn(CCCCN)c4ccccc34)C(=O)NC2=O)c2ccccc21`: over 25000 nM and over 25000 nM.

Regarding `COC(=O)[C@@H](C)C[C@H](Cc1ccccc1)NC(=O)c1csc(CC[C@H](C(C)C)N(C)C(=O)[C@@H](NC(=O)[C@H]2CCCCN2C)C(C)C)n1`, the GI50 was 68.9 nM and the TGI was 275 nM.

For the compound `S=C(Nc1ccc(Br)cc1)Nc1ccc(Br)cc1`, the GI50 is 2260 nM and the TGI came to 14000 nM.

In the case of `Cc1nn(-c2nc3ccccc3[nH]2)c(N)c1-c1ccc(Cl)cc1`, the GI50 was 2690 nM and the TGI is over 100000 nM. As to `FC(F)c1nc2ccccc2n1-c1nc(N2CCOCC2)nc(N2CCOCC2)n1`, the GI50 was 135 nM and 124 nM; the TGI was 971 nM and 607 nM.

As for `CCCNNC(=O)/C=C/c1ccc(CNCCc2c(C)[nH]c3ccccc23)cc1`, the GI50 was 27.9 nM and the TGI amounted to 529 nM. The matching figures for `CCC[CH2][Sn]([CH2]CCC)([CH2]CCC)[O]c1ccc(Cl)cc1Cl`: 105 nM and 250 nM. The matching figures for `COC(=O)c1c2c(c[n+]([O-])c1C)C(=O)C=CC2=O`: 914 nM and 3010 nM. The matching figures for `O=S(=O)(Nc1ccccc1Cl)c1ccc(-c2cnc(C3CC3)o2)cc1`: 236 nM and 6910 nM. With `COc1cc(NC(N)=NCCC(C)(C)Oc2ccc(C(F)(F)F)cc2)ncc1C#N`, the GI50 was 1070 nM and the TGI turned out to be 2440 nM. The matching figures for `COc1ccc(C(=O)/C=C/c2ccc(C)cc2)cc1OC`: 11400 nM and 24600 nM. The matching figures for `COc1cc(OC)cc(N(CCNC(C)C)c2ccc3ncc(-c4cnn(C)c4)nc3c2)c1`: 3070 nM and 13000 nM. For the compound `O=c1c(Oc2ccc(F)cc2F)cc2cnc(NC3CCOCC3)nc2n1CCCO`, the GI50 is over 25000 nM and the TGI is over 25000 nM. In the case of `O=C(CO[N+](=O)[O-])Nc1ccc(C(=O)/C=C/c2ccc(Cl)cc2)cc1`, the GI50 was 2060 nM and the TGI is 5070 nM. The matching figures for `CCN(Cc1cccc(F)c1)c1ccc(CO)c(Cl)c1`: 15.7 nM and 38.1 nM.
